Source: paper PMC3723537, “Structural Basis for Native Agonist and Synthetic Inhibitor Recognition by the Pseudomonas aeruginosa Quorum Sensing Regulator PqsR (MvfR)” (PLoS Pathogens, 2013)
“Also recorded” adds a separate entry of the source. Read-outs that look alike come from different tables or passages of the source.

Key:
[1] = test system: AQ biosynthesis; parameters: method as in PMID 17941706; settings: cited from earlier work
[2] = biological target: T1, PqsR (Pseudomonas aeruginosa, UniProt Q9I4X0); test: cell-based; parameters: assayed for their agonist and antagonist activities in a whole P. aeruginosa bacterial cell assay; endogenous in cells; host or cells: P. aeruginosa PAO1 wild type, ΔpqsA or ΔpqsAH strains carrying a chromosomal (mini)CTX::pqsA'-lux fusion; settings: for Agonist activity on PqsR (in words): pqsA'-lux reporter
T1 sequence (Q9I4X0 1-332): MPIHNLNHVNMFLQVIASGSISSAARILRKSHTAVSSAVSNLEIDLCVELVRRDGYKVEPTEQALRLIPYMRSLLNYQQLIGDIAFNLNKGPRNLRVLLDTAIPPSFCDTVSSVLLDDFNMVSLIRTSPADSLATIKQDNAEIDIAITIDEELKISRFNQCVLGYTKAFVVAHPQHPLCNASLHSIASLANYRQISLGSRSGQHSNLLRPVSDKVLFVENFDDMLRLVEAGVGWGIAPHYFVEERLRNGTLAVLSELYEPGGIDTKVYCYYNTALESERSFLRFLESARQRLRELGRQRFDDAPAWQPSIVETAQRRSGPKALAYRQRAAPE

[3] = biological target: T1, PqsR; test: cell-based; parameters: assayed for their agonist and antagonist activities in a whole P. aeruginosa bacterial cell assay; endogenous in cells; host or cells: P. aeruginosa PAO1 wild type, ΔpqsA or ΔpqsAH strains carrying a chromosomal (mini)CTX::pqsA'-lux fusion; settings: for Antagonist activity on PqsR (in words): pqsA'-lux reporter; for IC50: Figure 6 (QZNs), P. aeruginosa wild type strain with miniCTX::pqsA'-lux fusion, read-out: Antagonist IC50±SD
[4] = biological target: PqsR Leu207Glu (Pseudomonas aeruginosa, UniProt Q9I4X0, L207E); test: Response of PqsR-6His ligand binding site variants to PQS and HHQ, pqsA'-lux in ΔpqsA ΔpqsH ΔpqsR strain; assay type: cell-based; settings: Leu207Glu mutation; co-inducer 40 µM
[5] = biological target: T1, PqsR; test: cell-based; parameters: assayed for their agonist and antagonist activities in a whole P. aeruginosa bacterial cell assay; endogenous in cells; host or cells: P. aeruginosa PAO1 wild type, ΔpqsA or ΔpqsAH strains carrying a chromosomal (mini)CTX::pqsA'-lux fusion; settings: Figure 2 (AQs); P. aeruginosa ΔpqsAH CTX::pqsA'-lux strain; read-out: Agonist EC50 ±SD
[6] = biological target: T1, PqsR; parameters: assayed for their agonist and antagonist activities in a whole P. aeruginosa bacterial cell assay; endogenous in cells; host or cells: P. aeruginosa PAO1 wild type, ΔpqsA or ΔpqsAH strains carrying a chromosomal (mini)CTX::pqsA'-lux fusion; method as in PMID 17922753; settings: cited from earlier work; for Activation of PqsR (in words): dependence on alkyl chain length
[7] = test system: P. aeruginosa; test: Bacterial growth in the reporter assays; assay type: cell-based, Pseudomonas aeruginosa
Description: The impact of the AQs and QZNs on PqsR-dependent gene expression in P. aeruginosa was evaluated using lux-based pqsA, lecA and phzA1 promoter fusions (Table S1) in 96-well microtiter plates as described before,[23]. Bioluminescence and bacterial growth were quantified using a combined luminometer-spectrometer (Tecan GENios Pro). Where required, AQs or QZNs were added to reporter strains and EC50 or IC50 values were extracted from the sigmoidal dose–response curves obtained using Prism2 (Graphpad, San Diego, USA).

[8] = MeOH stock at a workable concentration
[9] = Figure 2 (AQs), P. aeruginosa ΔpqsA CTX::pqsA'-lux strain, read-out: Agonist EC50 ±SD
[10] = Figure 6 (QZNs), P. aeruginosa ΔpqsA miniCTX::pqsA'-lux strain, read-out: Agonist EC50±SD

SMILES: Nc1cc(Cl)ccc1C(=O)O [4-CABA, 2-amino-4-chorobenzoic acid]
- Concentrations required to inhibit AQ production [1]: millimolar range

SMILES: CCCCCCCc1[nH]c2ccccc2c(=O)c1N [5a]
- EC50 [2, 9]: 0.4 ± 0.15 µM

SMILES: CCCCCCCCCc1nc2cc(F)ccc2c(=O)[nH]1 [7F-C9-QZN]
- Agonist activity on PqsR (in words) [2]: devoid of agonist or antagonist activity
- Agonist activity on PqsR (in words) ([2]; listed as 8): partial agonists
- Antagonist activity on PqsR (in words) [3]: devoid of agonist or antagonist activity

SMILES: CCCCCCCc1nc2ccccc2c(=O)[nH]1 [C7-QZN]
- Agonist activity on PqsR (in words) [2]: devoid of agonist or antagonist activity
- Antagonist activity on PqsR (in words) [3]: devoid of agonist or antagonist activity

SMILES: CCCCCCCCCc1nc2ccccc2c(=O)[nH]1 [C9-QZN]
- Agonist activity on PqsR (in words) [2]: devoid of agonist or antagonist activity
- Antagonist activity on PqsR (in words) [3]: devoid of agonist or antagonist activity

SMILES: CCCCCCCc1cc(O)c2ccccc2n1 [compound 2, 2-heptyl-4-hydroxyquinoline]
- Response, % of pqsA promoter activity with respect to strain expressing PqsR-6His [4]: 5%
- EC50 [2, 9]: 0.8 ± 0.3 µM
- EC50 [5]: 16.4 ± 2.6 µM
- EC50 for PqsR-dependent activation of pqsA ([6]; whole P. aeruginosa cell assays): low micromolar range

SMILES: CCCCCCCCCc1cc(O)c2ccccc2n1 [compound 3, 2-nonyl-4-hydroxyquinoline]
- EC50 [2, 9]: 0.4 ± 0.1 µM
- EC50 [5]: 2.5 ± 1.5 µM
- Activation of PqsR (in words) [6]: highly active

SMILES: CCCCCCCCCc1[nH]c2ccccc2c(=O)c1O [compound 4, 2-nonyl-3-hydroxy-4(1H)-quinolone]
- EC50 [2, 9]: 1.1 ± 0.5 µM
- EC50 [5]: 9.1 ± 11.2 µM
- Activation of PqsR (in words) [6]: highly active

SMILES: CCCCCCCc1[nH]c2cc(Cl)ccc2c(=O)c1O [compound 5]
- EC50 [2, 9]: 0.014 ± 0.005 µM
- Agonist potency relative to PQS ([2]; in P. aeruginosa, from Figure 2 EC50s): ~135 times

SMILES: CCCCCCCc1nc2ccccc2c(=O)n1O [compound 9]
- EC50 [2, 10]: 54 ± 6.6 µM
- Agonist activity on PqsR (in words) [2]: partial agonists

SMILES: CCCCCCCCCc1nc2ccccc2c(=O)n1O [compound 10]
- EC50 [2, 10]: 30 ± 3.8 µM

SMILES: CCCCCCCCCc1nc2cc(Cl)ccc2c(=O)n1O [compound 11]
- EC50 [2, 10]: 12.7 ± 7.8 µM

SMILES: CCCCCCCCCc1nc2cc(F)ccc2c(=O)n1O [compound 12]
- EC50 [2, 10]: 21 ± 5.5 µM
- Agonist activity on PqsR (in words) [2]: totally devoid of agonist activity

SMILES: CCCCCCCc1nc2ccccc2c(=O)n1OC [compound 13]
- Agonist activity on PqsR (in words) [2]: inactive; also recorded: totally devoid of agonist activity

SMILES: CCCCCCCCCc1nc2ccccc2c(=O)n1OC [compound 14]
- Agonist activity on PqsR (in words) [2]: inactive

SMILES: CCCCCCCCCc1nc2cc(Cl)ccc2c(=O)n1OC [compound 15]
- EC50 [2, 10]: 37.3 ± 6.5 µM

SMILES: CCCCCCCCCc1nc2cc(F)ccc2c(=O)n1OC [compound 16]
- EC50 [2, 10]: 2.2 µM

SMILES: CCCCCCCCCc1nc2cc(F)c(F)cc2c(=O)n1OC [compound 17]
- EC50 [2, 10]: 53.6 ± 13.7 µM
- Reduction of agonist potency relative to 3-OMe-7F-C9-QZN ([2]; second fluorine introduced): ~25 fold

SMILES: CCCCCCCc1nc2ccccc2c(=O)n1N [compound 19]
- Agonist activity on PqsR (in words) [2]: None of these compounds were agonists
- IC50 [3]: 54 ± 15.5 µM

SMILES: CCCCCCCCCc1nc2ccccc2c(=O)n1N [compound 20]
- Agonist activity on PqsR (in words) [2]: None of these compounds were agonists
- IC50 [3]: 77.2 ± 1 µM

SMILES: CCCCCCCCCCCc1nc2ccccc2c(=O)n1N [compound 21]
- Agonist activity on PqsR (in words) [2]: None of these compounds were agonists
- IC50 [3]: 210 ± 77 µM

SMILES: CCCCCCCCCc1nc2ccc(Cl)cc2c(=O)n1N [compound 22]
- Antagonist activity on PqsR (in words) [3]: complete loss of antagonist activity

SMILES: CCCCCCCCCc1nc2cc(F)ccc2c(=O)n1N [compound 25]
- IC50 [3]: 3.9 ± 1.5 µM

SMILES: CCCCCCCCCc1nc2cc(F)c(F)cc2c(=O)n1N [compound 26]
- IC50 [3]: 1.2 ± 0.4 µM

SMILES: CCCCCCCCCc1nc2cc(C(F)(F)F)ccc2c(=O)n1N [compound 27]
- Antagonist activity on PqsR (in words) [3]: complete loss of activity

SMILES: CCCCCCCCCc1nc2cc(OC)c(OC)cc2c(=O)n1N [compound 28]
- Antagonist activity on PqsR (in words) [3]: inactive

SMILES: CCCCCC(C)CCc1nc2ccccc2c(=O)n1N (stereo not shown) [compound 29]
- Antagonist activity on PqsR (in words) [3]: all inactive

SMILES: CC(C)CCCCCCc1nc2ccccc2c(=O)n1N [compound 30]
- Antagonist activity on PqsR (in words) [3]: all inactive

SMILES: CCCCOCCOCc1nc2ccccc2c(=O)n1N [compound 32]
- Antagonist activity on PqsR (in words) [3]: all inactive

SMILES: CCCCCCCCCc1nc2ccccc2c(=O)n1NC(C)=O [compound 33]
- Antagonist activity on PqsR (in words) [3]: inactive or weak antagonists

SMILES: CCCCCCCCCc1nc2ccccc2c(=O)n1CCN [compound 35]
- Growth inhibition [7]: exhibited growth inhibition
- melting point: 77 to 81 °C
- Antagonist activity on PqsR (in words) [3]: inactive or weak antagonists

SMILES: CCCCCCCCCc1nc2ccc(Cl)cc2c(=O)n1CCN [compound 36]
- Growth inhibition [7]: exhibited growth inhibition
- melting point: 72 to 74 °C

SMILES: CCCCCCCCCc1nc2cc(Cl)ccc2c(=O)n1CCN [compound 37]
- Growth inhibition [7]: exhibited growth inhibition
- melting point: 69 to 72 °C

SMILES: CCCCCCCCCc1nc2cc(Cl)ccc2c(=O)n1CCCN [compound 38]
- Growth inhibition [7]: exhibited growth inhibition
- melting point: 82 to 95 °C

SMILES: NCCn1c(CCCc2ccccc2)nc2cc(Cl)ccc2c1=O [compound 39]
- Growth inhibition [7]: exhibited growth inhibition
- IC50 [3]: 79.2 ± 2.7 µM

SMILES: Nn1c(CCCc2ccccc2)nc2cc(Cl)ccc2c1=O [compound 41]
- IC50 [3]: 39.6 ± 11 µM

SMILES: Nn1c(CCc2c[nH]c3ccccc23)nc2cc(Cl)ccc2c1=O [compound 43]
- Solubility (in words) [8]: did not dissolve in MeOH at a workable concentration

SMILES: Nn1c(Cc2ccc(-c3ccccc3)cc2)nc2cc(Cl)ccc2c1=O [compound 44]
- Solubility (in words) [8]: did not dissolve in MeOH at a workable concentration

SMILES: Nn1c(CCCC2CCCCC2)nc2ccccc2c1=O [compound 46]
- Solubility (in words) [8]: barely soluble

SMILES: CCCCCCCCCc1nc2ncccc2c(=O)n1N [compound 47]
- Antagonist activity on PqsR (in words) [3]: complete loss of activity
